The results in this text go back to ChEMBL document CHEMBL1926647, “Discovery of 4-aminomethylphenylacetic acids as γ-secretase modulators via a scaffold design approach” (Bioorg Med Chem Lett, 2011).

Series [1] is described as follows: Modulation of gamma-secretase expressed in CHO cells co-expressing APP V717F mutant assessed as reduction in amyloid beta42 production after 17 hrs by ELISA. Format: cell-based. In general terms: ELISA stands for enzyme-linked immunosorbent assay.
The test system of series [2] is Mus musculus. As to the kind of experiment: Inhibition of gamma-secretase-mediated cleavage of APP in wild type CF1 mouse brain assessed as inhibition of amyloid beta42 production at 30 mg/kg, po after 4 hrs by ELISA. Type of series: functional. The following applies: for inhibition (INH): 30 mg/kg; for inhibition in vivo at 30 mg/kg: Mus musculus, CF1, Brain, po, 4 h.

Series [3] is described as follows: Drug uptake in wild type CF1 mouse brain at 30 mg/kg, po after 4 hrs. Format: ADME, organism-based. The arrangement: dose 30 mg/kg, route oral. The following applies: read-out: Drug uptake.
The nature of series [4]: Drug uptake in wild type CF1 mouse plasma at 30 mg/kg, po after 4 hrs. Details: dose 30 mg/kg, route oral. Type of series: ADME, organism-based.
The test system of series [5] is Mus musculus. As to the kind of experiment: Inhibition of gamma-secretase-mediated cleavage of APP in orally dosed wild type CF1 mouse brain assessed as inhibition of amyloid beta42 production after 4 hrs by ELISA. Format: functional, organism-based.
Series [6] concerns CHO. The series can be described thus: Modulation of gamma-secretase expressed in CHO cells co-expressing APP V717F mutant assessed as increase in amyloid beta38 secretion after 17 hrs by ELISA. Type of series: cell-based.
The test system of series [7] is CHO. The series can be described thus: Modulation of gamma-secretase expressed in CHO cells co-expressing APP V717F mutant assessed as effect on amyloid beta40 production after 17 hrs by ELISA. Type of series: cell-based.
The test system of series [8] is Mus musculus. As to the kind of experiment: Inhibition of gamma-secretase-mediated cleavage of APP in wild type CF1 mouse brain assessed as inhibition of amyloid beta42 production at 50 mg/kg, po after 4 hrs by ELISA. Format: functional.
A short description of series [9]: Drug uptake in wild type CF1 mouse brain at 50 mg/kg, po after 4 hrs. Details: dose 50 mg/kg, route oral. Type of series: ADME, organism-based. The following applies: read-out: Drug uptake.
Series [10] is described as follows: Drug uptake in wild type CF1 mouse plasma at 50 mg/kg, po after 4 hrs. The arrangement: dose 50 mg/kg, route oral. Format: ADME, organism-based.
The test system of series [11] is MC-IXC/H4. As to the kind of experiment: Inhibition of Notch intracellular domain in human MC-IXC/H4 cells assessed as reduction in HES1 protein expression at 10 uM after 24 hrs Western blotting. Type of series: cell-based. In general terms: Immunoblotting shows a protein as a band on a membrane.
Series [12] in a line: Ratio of drug level in brain to plasma in wild type CF1 mouse at 30 mg/kg, po after 4 hrs. The arrangement: dose 30 mg/kg, route oral. The following applies: read-out: BPR. Type of series: ADME, organism-based.
The test system of series [13] is Mus musculus. The series can be described thus: Inhibition of gamma-secretase-mediated cleavage of APP in wild type CF1 mouse brain assessed as inhibition of amyloid beta42 production at 12.5 mg/kg, po after 4 hrs by ELISA. Type of series: functional. As to conditions: Mus musculus, CF1, Brain, po, 4 h.
A short description of series [14]: Drug uptake in wild type CF1 mouse brain at 12.5 mg/kg, po after 4 hrs. Format: ADME, organism-based. The arrangement: dose 12.5 mg/kg, route oral. The following applies: read-out: Drug uptake.
The species named for series [15] is Rattus norvegicus. As to the kind of experiment: Liver blood flow in rat. Type of series: ADME, organism-based.
Series [16] is filed under the species Homo sapiens. As to the kind of experiment: Liver blood flow in human. Type of series: ADME, organism-based.
Series [17] can be described thus: Apparent permeability from apical to basolateral side in human Caco2 cells. The following applies: caco-2. Format: ADME, cell-based.
Series [18] concerns Caco-2. As to the kind of experiment: Ratio of permeability from basolateral to apical side to apical to basolateral side in human Caco2 cells. Type of series: ADME, cell-based. In general terms: Passage across Caco-2 layers is used to estimate intestinal permeability.
For series [19], the system named is Rattus norvegicus. As to the kind of experiment: Dose normalised AUC in F344 rat at 2 mg/kg. Type of series: ADME, organism-based. As to conditions: in vivo. The arrangement: dose 2 mg/kg.
The nature of series [20]: Clearance in F344 rat at 2 mg/kg. The following applies: in vivo. Details: dose 2 mg/kg. Format: ADME, organism-based.
Series [21] can be described thus: Half life in F344 rat at 2 mg/kg. Details: dose 2 mg/kg. As to conditions: in vivo. Format: ADME, organism-based.
Series [22] relates to Canis familiaris. The series can be described thus: Dose normalised AUC in dog at 0.5 mg/kg. Type of series: ADME, organism-based, Canis lupus familiaris. The arrangement: dose 0.5 mg/kg. As to conditions: in vivo.
The nature of series [23]: Cmax in dog at 0.5 mg/kg. Format: ADME, organism-based, Canis lupus familiaris. Details: dose 0.5 mg/kg. As to conditions: in vivo.
Series [24] can be described thus: Clearance in dog at 0.5 mg/kg. Format: ADME, organism-based, Canis lupus familiaris. Details: dose 0.5 mg/kg. As to conditions: in vivo.
Series [25] is described as follows: Half life in dog at 0.5 mg/kg. Type of series: ADME, organism-based, Canis lupus familiaris. Details: dose 0.5 mg/kg. The following applies: in vivo.
Series [26] has as its target Voltage-gated inwardly rectifying potassium channel KCNH2 (Homo sapiens, UniProt Q12809). The series can be described thus: Inhibition of human ERG at 10 uM.
Series [27] has as its target Cytochrome P450 3A4 (Homo sapiens, UniProt P08684). As to the kind of experiment: Inhibition of human CYP3A4. Format: ADME.
The target of series [28] is Cytochrome P450 2C9 (Homo sapiens, UniProt P11712). As to the kind of experiment: Inhibition of human CYP2C9. Format: ADME.
Sequence of Cytochrome P450 2C9 (P11712 whole entry): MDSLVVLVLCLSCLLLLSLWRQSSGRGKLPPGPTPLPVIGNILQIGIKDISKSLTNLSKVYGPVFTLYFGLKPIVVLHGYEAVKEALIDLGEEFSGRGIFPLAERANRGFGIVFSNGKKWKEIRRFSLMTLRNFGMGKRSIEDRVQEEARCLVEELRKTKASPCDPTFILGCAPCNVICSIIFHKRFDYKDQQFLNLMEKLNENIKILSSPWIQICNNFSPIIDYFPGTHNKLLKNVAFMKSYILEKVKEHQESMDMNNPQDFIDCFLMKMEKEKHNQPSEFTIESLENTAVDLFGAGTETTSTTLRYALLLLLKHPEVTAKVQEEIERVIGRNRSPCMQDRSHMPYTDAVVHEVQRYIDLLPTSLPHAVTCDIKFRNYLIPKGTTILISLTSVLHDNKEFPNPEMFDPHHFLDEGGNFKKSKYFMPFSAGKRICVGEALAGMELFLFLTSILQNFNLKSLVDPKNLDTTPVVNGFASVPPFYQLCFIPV
Series [29] concerns the target Cytochrome P450 2C19 (Homo sapiens, UniProt P33261). As to the kind of experiment: Inhibition of human CYP2C19. Format: ADME.
The target of series [30] is Cytochrome P450 2D6 (Homo sapiens, UniProt P10635). As to the kind of experiment: Inhibition of human CYP2D6. Type of series: ADME.
Sequence of Cytochrome P450 2D6 (P10635 whole entry): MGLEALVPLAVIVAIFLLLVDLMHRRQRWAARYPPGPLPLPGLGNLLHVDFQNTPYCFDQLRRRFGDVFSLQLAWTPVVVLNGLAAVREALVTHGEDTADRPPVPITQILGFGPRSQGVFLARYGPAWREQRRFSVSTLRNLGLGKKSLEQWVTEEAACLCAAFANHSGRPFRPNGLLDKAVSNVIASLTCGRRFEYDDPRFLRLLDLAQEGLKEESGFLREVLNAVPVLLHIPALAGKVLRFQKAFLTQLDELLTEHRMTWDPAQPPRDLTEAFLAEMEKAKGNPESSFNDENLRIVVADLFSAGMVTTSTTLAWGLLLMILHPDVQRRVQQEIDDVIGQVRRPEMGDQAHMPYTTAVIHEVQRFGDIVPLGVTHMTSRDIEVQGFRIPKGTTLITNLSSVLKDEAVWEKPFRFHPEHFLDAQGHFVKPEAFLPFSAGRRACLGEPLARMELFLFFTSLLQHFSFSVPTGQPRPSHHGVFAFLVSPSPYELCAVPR
Series [31] deals with T1, Cytochrome P450 1A2 (Homo sapiens, UniProt P05177).
T1 sequence (P05177 whole entry): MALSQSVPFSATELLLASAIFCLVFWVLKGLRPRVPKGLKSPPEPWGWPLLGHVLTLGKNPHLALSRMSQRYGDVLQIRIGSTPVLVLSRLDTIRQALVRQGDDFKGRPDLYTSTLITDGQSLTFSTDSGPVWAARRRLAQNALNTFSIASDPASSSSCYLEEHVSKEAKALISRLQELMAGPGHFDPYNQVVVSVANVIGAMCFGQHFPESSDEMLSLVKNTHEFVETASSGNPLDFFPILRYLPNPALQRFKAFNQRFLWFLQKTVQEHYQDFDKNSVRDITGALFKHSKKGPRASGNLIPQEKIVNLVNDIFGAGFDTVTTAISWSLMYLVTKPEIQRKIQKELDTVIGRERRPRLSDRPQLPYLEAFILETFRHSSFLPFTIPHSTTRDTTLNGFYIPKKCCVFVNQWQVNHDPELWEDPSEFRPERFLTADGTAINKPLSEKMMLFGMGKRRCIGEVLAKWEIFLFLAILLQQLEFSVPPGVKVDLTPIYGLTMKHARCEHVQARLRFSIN
As to the kind of experiment: Inhibition of human CYP1A2. Type of series: ADME.

Series [32] is described as follows: Modulation of gamma-secretase expressed in CHO cells co-expressing polyhistidine-tagged APP695NL I-his with FAD-linked Swedish and London mutation assessed as reduction in amyloid beta42 production after 2 hrs by ELISA. Format: cell-based.

As usually defined, the IC50 is the concentration needed to halve the response being measured. As a reminder, the EC50 is the concentration that produces a half-maximal response. For orientation: inhibition in vivo means the share of the control response that was lost under treatment. One may read the Papp A→B as how fast a substance crosses the layer from the apical side. One may read the clearance as the volume of plasma or blood freed of the substance per unit of time. A low value points to inefficient removal. Broadly, the half-life is the time in which the quantity being followed falls by half. Low values mean rapid decline, high ones slow decline. By Cmax is commonly meant the maximum level reached in the sampled fluid or tissue.

SMILES strings stand for the structures. The source made the active and inactive calls. The calls are words filed in the database; no cut-off is given here.

Sequence of Cytochrome P450 3A4 (P08684 whole entry): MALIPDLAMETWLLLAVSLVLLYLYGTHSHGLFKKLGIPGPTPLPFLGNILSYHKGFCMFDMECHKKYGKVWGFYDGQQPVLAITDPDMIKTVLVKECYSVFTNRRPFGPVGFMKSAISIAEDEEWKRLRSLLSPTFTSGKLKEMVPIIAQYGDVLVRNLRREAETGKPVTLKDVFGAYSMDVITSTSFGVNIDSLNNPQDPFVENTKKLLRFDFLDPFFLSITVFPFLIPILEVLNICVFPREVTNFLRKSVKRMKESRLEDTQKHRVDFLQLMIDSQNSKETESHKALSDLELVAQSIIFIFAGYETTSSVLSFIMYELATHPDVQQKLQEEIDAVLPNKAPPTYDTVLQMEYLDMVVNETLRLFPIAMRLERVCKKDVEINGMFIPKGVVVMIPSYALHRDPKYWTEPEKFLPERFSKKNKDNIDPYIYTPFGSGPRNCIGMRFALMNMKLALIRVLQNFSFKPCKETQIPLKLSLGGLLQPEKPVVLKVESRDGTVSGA
Sequence of Cytochrome P450 2C19 (P33261 whole entry): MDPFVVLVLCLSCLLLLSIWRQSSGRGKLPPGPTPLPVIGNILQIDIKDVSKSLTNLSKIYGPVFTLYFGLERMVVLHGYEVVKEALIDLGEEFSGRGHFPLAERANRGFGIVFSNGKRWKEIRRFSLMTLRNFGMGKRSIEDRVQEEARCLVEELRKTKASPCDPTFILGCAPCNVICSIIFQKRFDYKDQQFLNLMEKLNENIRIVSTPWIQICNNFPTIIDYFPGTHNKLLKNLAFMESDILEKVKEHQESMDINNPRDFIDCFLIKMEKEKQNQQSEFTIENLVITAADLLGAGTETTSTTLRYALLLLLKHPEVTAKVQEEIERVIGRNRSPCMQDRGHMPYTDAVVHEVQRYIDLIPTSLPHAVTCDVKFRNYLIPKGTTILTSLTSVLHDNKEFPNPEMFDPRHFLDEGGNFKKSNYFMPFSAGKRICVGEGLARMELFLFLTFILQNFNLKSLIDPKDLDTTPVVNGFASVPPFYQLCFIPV
Sequence of Voltage-gated inwardly rectifying potassium channel KCNH2 (Q12809 whole entry): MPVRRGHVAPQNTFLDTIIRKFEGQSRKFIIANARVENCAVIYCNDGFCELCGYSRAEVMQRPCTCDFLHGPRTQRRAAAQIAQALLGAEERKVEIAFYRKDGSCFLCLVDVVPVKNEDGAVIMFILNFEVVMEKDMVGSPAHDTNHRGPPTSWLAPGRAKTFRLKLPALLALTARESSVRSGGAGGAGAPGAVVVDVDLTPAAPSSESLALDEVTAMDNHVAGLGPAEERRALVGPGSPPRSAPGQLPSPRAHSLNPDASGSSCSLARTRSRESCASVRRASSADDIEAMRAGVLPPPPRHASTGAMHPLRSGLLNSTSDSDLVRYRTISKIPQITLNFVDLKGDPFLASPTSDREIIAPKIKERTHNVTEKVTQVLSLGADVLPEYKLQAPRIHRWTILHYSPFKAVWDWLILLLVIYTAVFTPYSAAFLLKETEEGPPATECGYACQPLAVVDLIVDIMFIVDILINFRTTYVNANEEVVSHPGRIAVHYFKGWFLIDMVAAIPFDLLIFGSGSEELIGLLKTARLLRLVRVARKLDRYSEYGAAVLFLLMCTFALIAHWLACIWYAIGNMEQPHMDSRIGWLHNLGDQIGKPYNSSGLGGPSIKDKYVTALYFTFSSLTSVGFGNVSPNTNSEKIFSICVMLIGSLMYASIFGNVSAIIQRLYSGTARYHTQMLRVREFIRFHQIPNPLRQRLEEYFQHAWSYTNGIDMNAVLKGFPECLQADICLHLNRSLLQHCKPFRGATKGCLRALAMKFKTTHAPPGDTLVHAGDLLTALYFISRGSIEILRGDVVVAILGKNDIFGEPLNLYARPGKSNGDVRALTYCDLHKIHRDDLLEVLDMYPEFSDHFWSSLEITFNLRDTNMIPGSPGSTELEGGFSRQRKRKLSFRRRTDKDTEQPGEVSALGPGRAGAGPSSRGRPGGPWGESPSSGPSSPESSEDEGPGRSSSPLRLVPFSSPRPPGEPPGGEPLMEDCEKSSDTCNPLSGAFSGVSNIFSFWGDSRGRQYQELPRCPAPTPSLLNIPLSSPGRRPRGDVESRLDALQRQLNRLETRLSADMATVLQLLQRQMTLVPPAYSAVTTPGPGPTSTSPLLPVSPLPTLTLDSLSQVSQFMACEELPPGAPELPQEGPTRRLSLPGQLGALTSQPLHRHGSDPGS

Take `CC(C)(C)CC(c1ccc(CC(=O)O)cc1-c1ccc(C(F)(F)F)cc1)N1CCC(C(F)(F)F)CC1` (single isomer, unassigned; enantiomer 1): the IC50 in series [1] was 0.7 µM. Moreover, in series [2], the “inhibition (INH)” value is 25%.

On to `CC(C)CCC(c1ccc(C(C)(C)C(=O)O)cc1-c1ccc(C(F)(F)F)cc1)N1CCC(C(F)(F)F)CC1` (stereo not given), for which the EC50 in [1] is 0.46 µM. Also, the inhibition in vivo at 30 mg/kg in series [2] was 20%. In addition, the concentration at 4 h is 13 µM in series [3] and 21 µM in series [4].

`O=C(O)Cc1ccc(C(CCC(F)(F)F)N2CCC(C(F)(F)F)CC2)c(-c2ccc(C(F)(F)F)cc2)c1` (stereo not given): the EC50 in series [1] is 1.4 µM.

Turning to `CC(C)CCN(Cc1ccc(C(=O)O)cc1-c1ccc(C(F)(F)F)cc1)c1ccc(C(F)(F)F)cc1`, the EC50 in series [1] was 5.4 µM.

On to `CC(C)CCN(Cc1ccc(CC(=O)O)cc1-c1ccc(C(F)(F)F)nc1)[C@H]1CC[C@H](C(C)(C)C)CC1`, for which, in series [1], the EC50 amounted to 5 µM.

`CC(C)(C)CC(c1ccc(CC(=O)O)cc1-c1ccc(C(F)(F)F)cc1)N1CCC(C(F)(F)F)CC1` (racemic) [listing 1 of 2 here]: the inhibition result in series [5] is “Dose-dependent effect”.

Turning to `CC(C)CCN(Cc1ccc(CC(=O)O)cc1-c1ccc(C(F)(F)F)cc1)c1ccc(C(F)(F)F)cc1`, the EC50 in [1] was 1.5 µM. Moreover, in series [6], the result was Active. Besides, in [7], the outcome was inactive. The inhibition entry in series [8] was “inactive”. The concentration at 4 h in series [9] was 0.6 µM; in [10] it was 15 µM.

Take `O=C(O)Cc1ccc(CN2CCC(C(F)(F)F)CC2)c(-c2ccc(C(F)(F)F)cc2)c1`: the EC50 in series [1] is greater than 10 µM.

In the case of `CC(C)CCC(c1ccc(CC(=O)O)cc1-c1ccc(C(F)(F)F)cc1)N1CCC(F)CC1` (stereo not given), the EC50 in [1] stood at 3.3 µM.

As to `CC(C)(C)CC(c1ccc(CC(=O)O)cc1-c1ccc(C(F)(F)F)cc1)N1CCC(C(F)(F)F)CC1` (single isomer, unassigned; enantiomer 2), the inhibition entry in series [11] is “inactive”.

Turning to `CC(C)CCC(c1ccc(C(CC(C)C)C(=O)O)cc1-c1ccc(C(F)(F)F)cc1)N1CCC(C(F)(F)F)CC1` (stereo not given), the EC50 in series [1] is 0.21 µM. Also, in series [2], the inhibition in vivo at 30 mg/kg is 21%. Further, the concentration at 4 h amounted to 4 µM in [3] and 14 µM in series [4].

Turning to `CC(C)(C)CC(c1ccc(CC(=O)O)cc1-c1ccc(C(F)(F)F)cc1)N1CCC(C(F)(F)F)CC1` (racemic) [listing 2 of 2 here], the EC50 in [1] amounted to 0.63 µM. Also, the “inhibition (INH)” value is reported as 50% in series [2] and “Not Active” in [26]. For the same compound, the concentration at 4 h in series [3] was 32 µM; in series [4], 37 µM; in [14], 9 µM. The Kp at 4 h in [12] worked out at 1. The inhibition in vivo at 12.5 mg/kg in series [13] was found to be 25%. Besides, the figures for the QH in series [15] and in series [16] were 31% and 39%, respectively. Also, in series [17], the Papp A→B amounted to 16 ×10⁻⁶ cm/s. In addition, the Ratio in [18] was found to be 1.9. The AUC/dose was 5495 ng·kg·h/mL/mg in series [19] and 28712 ng·kg·h/mL/mg in [22]. Also, the clearance in [20] was 2.5 mL/min/kg; in series [24], 0.6 mL/min/kg. The half-life is 9.6 h in series [21] and 10.1 h in series [25]. The compound further gave a Cmax in [23] of 1120 ng/mL. Further, the IC50 in [27], in series [28], in series [29], in series [30] and in series [31] was greater than 10 µM throughout.

On to `C[C@@H](C(=O)O)c1ccc(-c2ccccc2)c(F)c1` [TARENFLURBIL], for which the EC50 in series [32] stood at 300 µM.

Turning to `CC(C)CCC(NC1CCC(C(C)(C)C)CC1)c1ccc(CC(=O)O)cc1-c1ccc(C(F)(F)F)cc1` (stereo not given), in [1], the EC50 worked out at 0.45 µM.

As to `CC(C)CCC(c1ccc(CC(=O)O)cc1-c1ccc(C(F)(F)F)cc1)N1CCC(C(C)(C)C)CC1` (stereo not given), the EC50 in series [1] amounted to 1.1 µM.
